Results as given in patent US12234211B2, “Cycloolefin substituted heteroaromatic compounds and their use” (HUTCHISON MEDIPHARMA LIMITED, priority 2017, dated 2025).

biological target: T1, IDH2-R140Q (Homo sapiens, UniProt P48735, R140Q); assay: Fluorescent determination of IDH2-R140Q cell activity (2-HG in U87MGR140Q cells); type: cell-based; conditions: 72 hours incubation, read-out: IC50 (2-HG inhibition)
T1 construct: expressed in transfected cells
T1 sequence (P48735 40-452 R140Q): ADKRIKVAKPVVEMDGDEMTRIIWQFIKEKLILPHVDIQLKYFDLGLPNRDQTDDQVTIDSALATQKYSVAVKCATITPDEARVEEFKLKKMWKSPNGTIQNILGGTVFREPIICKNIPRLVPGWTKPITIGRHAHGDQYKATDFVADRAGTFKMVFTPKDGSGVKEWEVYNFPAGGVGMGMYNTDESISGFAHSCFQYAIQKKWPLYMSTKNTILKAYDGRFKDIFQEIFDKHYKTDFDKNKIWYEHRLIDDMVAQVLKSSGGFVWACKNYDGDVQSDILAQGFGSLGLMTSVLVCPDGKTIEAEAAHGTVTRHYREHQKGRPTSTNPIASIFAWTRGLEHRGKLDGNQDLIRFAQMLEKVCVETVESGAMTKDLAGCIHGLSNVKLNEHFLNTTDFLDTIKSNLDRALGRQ
Experimental: Enzyme reaction solution: 1 mM nicotinamide adenine dinucleotide (NAD), 0.6 ng/μL D-2-hydroxyglutarate dehydrogenase (D2HGDH), 0.8 U/mL lipoamidase dehydrogenase (Diaphorase) and 60 μM Resazurin in 40 mM Tris.HCl pH 8.8 assay buffer.
Standard curve stock solution: The standard of 2-HG sodium salt was serially diluted in serum-free MEM medium to make a standard curve stock solution.
100 μL of U87MGR140Q cells were seeded at a density of 6×10^4/mL per well in a 96-well plate a.
From each well of 96-well plate a, 50 μL of the culture supernatant was transferred to the corresponding well of 96-well plate b; at the same time, 50 μL of standard curve stocking solution was added to other wells of 96-well plate b. Then 10 μl of 360 mM hydrochloric acid was added to all the wells. After shaking and mixing, the plate was placed on ice for 10 minutes, and then 10 μl of 420 mM Tris-base was added. After shaking and mixing, the plate was placed on ice for additional 5 minutes. Then the plate was centrifuged at 2500 rpm for 10 minutes.
After centrifuging, from each well of 96-well plate b, 20 μL of the supernatant was transferred to 96-well plate c. An additional 80 μL of the enzyme reaction solution was added to each well and incubated at 25° C. for 90 minutes.
A standard curve of the fluorescence value vs. the corresponding 2-HG concentration was made, and the 2-HG concentration corresponding to each concentration point of the compound was calculated, then the inhibition ratio was calculated, and the data was analyzed using XLfit5 (ID Business Solutions Limited) software to obtain the IC50 value.
The inhibition ratio was calculated as follows: Inhibition Ratio (IH %)=(1-2-HG concentration of test compound treated cells/2-HG concentration of control cells)×100%.

Point of comparison: CC(CO)Nc1nc(N[C@H](C)C(F)(F)F)nc(C2=CC(O)CCC2)n1 (mixture of isomers) [Compound 184], IC50 3780 nM. Against it:
- CC[C@H](C)Nc1nc(N[C@H](C)C(F)(F)F)nc(C2=C(F)C(O)CCC2)n1 (mixture of isomers) [Compound 165] — 19-fold lower, 198 nM
- C[C@@H](Nc1nc(NCC2CC2)nc(C2=CCCCC2)n1)C(F)(F)F [Compound 192] — 12-fold lower, 314 nM
- CC(C)Nc1nc(N[C@H](C)C(F)(F)F)nc(C2=CC(F)CCC2)n1 (mixture of isomers) [Compound 36] — 21-fold lower, 181 nM
- C[C@@H](Nc1nc(NC2COC2)nc(C2=CC(O)CCC2)n1)C(F)(F)F (some centres unmarked) [Compound 178] — 4-fold lower, 934 nM
- CC(C)Nc1nc(NC2CC(F)(F)C2)nc(C2=C(F)C(O)CCC2)n1 (centres unmarked) [Compound 28] — 31-fold lower, 123 nM
- C[C@@H](Nc1nc(NCC(F)(F)F)nc(C2=CC(O)CCC2)n1)C(F)(F)F (mixture of isomers) [Compound 154] — 19-fold lower, 202 nM
- [2H]C1([2H])CCC(c2nc(NC(C)C)nc(NC3CC(F)(F)C3)n2)=C(F)C1([2H])O (racemic) [Compound 92] — 26-fold lower, 143 nM
- [2H]C([2H])([2H])C([2H])(Nc1nc(N[C@@H](C)C(F)(F)F)nc(C2=C(F)C(O)CCC2)n1)C([2H])([2H])[2H] (some centres unmarked) [Compound 53] — 29-fold lower, 131 nM
- [2H]C1([2H])CCC(c2nc(NC3CC(F)(F)C3)nc(N[C@@H](C)C(F)(F)F)n2)=C(F)C1([2H])O (mixture of isomers) [Compound 90] — 58-fold lower, 65 nM
- C[C@@H](Nc1nc(NC2CC3(C2)CC(F)(F)C3)nc(C2=C(F)C(O)CCC2)n1)C(F)(F)F (mixture of isomers) [Compound 160] — 21-fold lower, 180 nM
- CC(C)Nc1nc(N[C@H](C)C(F)(F)F)nc(C2=C(F)C(F)CCC2)n1 (mixture of isomers) [Compound 35, 6-(2,3-Difluorocyclohex-1-en-1-yl)-N^2-isopropyl-N^4-((R)-1,1,1-trifluoropropan-2-yl)-1,3,5-triazine-2,4-diamine] — 6.4-fold lower, 591 nM
- [2H]C1(O)CCCCC(c2nc(NC3CC(F)(F)C3)nc(NC3CC(F)(F)C3)n2)=C1F (centres unmarked) [Compound 22] — 11-fold lower, 336 nM
- CC(C)Nc1nc(N[C@H](C)C(F)(F)F)nc(C2=CCC(F)CC2)n1 (mixture of isomers) [Compound 38] — 2.3-fold lower, 1620 nM
- C[C@@H](Nc1nc(N[C@H](C)C(F)(F)F)nc(C2=CCCCC2)n1)C(F)(F)F [Compound 186, 6-(Cyclohex-1-en-1-yl)-N^2,N^4-bis((R)-1,1,1-trifluoropropan-2-yl)-1,3,5-triazine-2,4-diamine] — 5.6-fold lower, 677 nM
- C[C@@H](Nc1nc(NC2CCCC2)nc(C2=C(F)C(O)CCC2)n1)C(F)(F)F (mixture of isomers) [Compound 10] — 33-fold lower, 113 nM
- CC(C)Nc1nc(N[C@H](C)C(F)(F)F)nc(C2=C(Cl)C(O)CCC2)n1 (mixture of isomers) [Compound 17] — 2.3-fold lower, 1620 nM
- C[C@@H](Nc1nc(NCC(F)(F)F)nc(C2=C(F)C(O)C(F)(F)CC2)n1)C(F)(F)F (mixture of isomers) [Compound 208] — 37-fold lower, 102 nM
- CC(C)Nc1nc(N[C@H](C)C(F)(F)F)nc(C2=CCCC(F)C2)n1 (mixture of isomers) [Compound 37] — 2-fold lower, 1910 nM
- [2H]C1(O)CCCC(c2nc(NC(C)C)nc(N[C@H](C)C(F)(F)F)n2)=C1F (mixture of isomers) [Compound 23] — 20-fold lower, 192 nM
- C[C@@H](Nc1nc(NC2CCC(F)(F)C2)nc(C2=CC(O)CCC2)n1)C(F)(F)F (mixture of isomers) [Compound 176] — 6.2-fold lower, 612 nM
- C[C@@H](Nc1nc(N[C@@H]2CCC[C@@H]2O)nc(C2=CC(O)CCC2)n1)C(F)(F)F (some centres unmarked) [Compound 182] — 3.1-fold lower, 1230 nM
- [2H]C1([2H])CCC(c2nc(Nc3ccnc(C(F)(F)F)c3)nc(NC([2H])(C([2H])([2H])[2H])C([2H])([2H])[2H])n2)=C(F)C1O (centres unmarked) [Compound 86] — 180-fold lower, 21 nM
- C1=C(c2nc(NCC3CC3)nc(NCC3CC3)n2)CCCC1 [Compound 187] — 5.1-fold lower, 742 nM
- CC(C)C(=O)Nc1nc(N[C@H](C)C(F)(F)F)nc(C2=CC(O)CCC2)n1 (mixture of isomers) [Compound 137] — 2.5-fold lower, 1540 nM
- CC1CC1Nc1nc(NC2CC(F)(F)C2)nc(C2=C(F)C(O)CCC2)n1 (centres unmarked) [Compound 50] — 52-fold lower, 72 nM
- CC(C)CNc1nc(N[C@H](C)C(F)(F)F)nc(C2=C(F)C(O)CCC2)n1 (mixture of isomers) [Compound 12] — 19-fold lower, 199 nM
- OC1CCCC(c2nc(NC3CC3)nc(NC3CC(F)(F)C3)n2)=C1F (centres unmarked) [Compound 27] — 26-fold lower, 148 nM
- [2H]C1([2H])CCC(c2nc(NC(C)C)nc(NC3CC(F)(F)C3)n2)=C(F)C1O (centres unmarked) [Compound 56] — 41-fold lower, 93 nM
- C[C@@H](Nc1nc(N[C@H]2CCOC2)nc(C2=CC(O)CCC2)n1)C(F)(F)F (some centres unmarked) [Compound 180] — 7.1-fold lower, 531 nM
- [2H]C1(O)CCCC(c2nc(N[C@@H](C)C(F)(F)F)nc(NC([2H])(C([2H])([2H])[2H])C([2H])([2H])[2H])n2)=C1F (mixture of isomers) [Compound 30] — 17-fold lower, 228 nM
- C[C@H](Nc1nc(N[C@@H](C)C(F)(F)F)nc(C2=C(F)C(O)CCC2)n1)C(F)(F)F (some centres unmarked) [Compound 69] — 22-fold lower, 173 nM
- C[C@@H](Nc1nc(N[C@@H]2CCOC2)nc(C2=CC(O)CCC2)n1)C(F)(F)F (some centres unmarked) [Compound 179] — 6.3-fold lower, 598 nM
- C[C@@H](Nc1nc(N[C@H]2CCOC2)nc(C2=CC(F)(F)CCC2)n1)C(F)(F)F [Compound 139] — 1.5-fold lower, 2510 nM
- CC(C)Nc1nc(NC(C)C)nc(C2=C(F)C(O)CCC2)n1 (centres unmarked) [Compound 25] — 5.7-fold lower, 665 nM
- C[C@@H](Nc1nc(Nc2ccn3ccnc3c2)nc(C2=C(F)C(O)CCC2)n1)C(F)(F)F (some centres unmarked) [Compound 44] — within 1.5-fold, 3150 nM
- C[C@@H](Nc1nc(NCC(C)(C)O)nc(C2=CC(O)CCC2)n1)C(F)(F)F (mixture of isomers) [Compound 131] — within 1.5-fold, 2800 nM
- C[C@@H](Nc1nc(NC2CC2)nc(C2=C(F)C(O)CCC2)n1)C(F)(F)F (mixture of isomers) [Compound 162] — 21-fold lower, 177 nM
- COC[C@H](C)Nc1nc(N[C@H](C)C(F)(F)F)nc(C2=CC(O)CCC2)n1 (some centres unmarked) [Compound 183] — 7.5-fold lower, 507 nM
- CC(C)Nc1nc(N[C@H](C)C(F)(F)F)nc(C2=CCCC2)n1 [Compound 189] — 2.7-fold lower, 1410 nM
- CC(C)Nc1nc(N[C@H](C)C(F)(F)F)nc(C2=CCCCC2)n1 [Compound 190, (R)-6-(cyclohex-1-en-1-yl)-N^2-isopropyl-N^4-(1,1,1-trifluoropropan-2-yl)-1,3,5-triazine-2,4-diamine] — 9.2-fold lower, 413 nM
- C[C@H](CF)Nc1nc(NC2CC(F)(F)C2)nc(C2=C(F)C(O)CCC2)n1 (some centres unmarked) [Compound 43] — 12-fold lower, 328 nM
- CC(C)Nc1nc(N[C@H](C)C(F)(F)F)nc(C2=CC(F)(F)CCC2)n1 [Compound 138, (R)-6-(3,3-difluorocyclohex-1-en-1-yl)-N^2-isopropyl-N^4-(1,1,1-trifluoropropan-2-yl)-1,3,5-triazine-2,4-diamine] — 7.5-fold lower, 504 nM
- C[C@@H](Nc1nc(NC2CC2)nc(C2=CC(O)CCC2)n1)C(F)(F)F (mixture of isomers) [Compound 129] — 22-fold lower, 171 nM
- [2H]C([2H])([2H])Nc1nc(Nc2ccnc(C(F)(F)F)c2)nc(C2=C(F)C(O)CCC2)n1 (centres unmarked) [Compound 58] — 22-fold lower, 169 nM
- CCNc1nc(N[C@H](C)C(F)(F)F)nc(C2=CC(O)CCC2)n1 (mixture of isomers) [Compound 135] — 11-fold lower, 336 nM
- CC(C)Nc1nc(N[C@H](C)C(F)(F)F)nc(C2=CC(=O)CCC2)n1 [Compound 122, (R)-3-(4-(isopropylamino)-6-((1,1,1-trifluoropropan-2-yl)amino)-1,3,5-triazin-2-yl)cyclohex-2-en-1-one] — 2.8-fold lower, 1340 nM
- CC[C@@H](C)Nc1nc(N[C@H](C)C(F)(F)F)nc(C2=C(F)C(O)CCC2)n1 (mixture of isomers) [Compound 164] — 21-fold lower, 176 nM
- CC(C)(O)CNc1nc(Nc2ccnc(C(F)(F)F)c2)nc(C2=C(F)C(O)CCC2)n1 (centres unmarked) [Compound 70] — 34-fold lower, 112 nM
- C[C@@H](Nc1nc(NC2(C)CC2)nc(C2=CC(O)CCC2)n1)C(F)(F)F (mixture of isomers) [Compound 156] — 5.8-fold lower, 657 nM
- COC1C=C(c2nc(N[C@H](C)C(F)(F)F)nc(N[C@H](C)C(F)(F)F)n2)CCC1 (mixture of isomers) [Compound 140, 6-(3-Methoxycyclohex-1-en-1-yl)-N^2,N^4-bis((R)-1,1,1-trifluoropropan-2-yl)-1,3,5-triazine-2,4-diamine] — 1.6-fold lower, 2390 nM
- CC(C)Nc1nc(Nc2ccn3nccc3c2)nc(C2=C(F)C(O)CCC2)n1 (centres unmarked) [Compound 59] — 17-fold lower, 221 nM
- CCCNc1nc(N[C@H](C)C(F)(F)F)nc(C2=C(F)C(O)C(F)(F)CC2)n1 (mixture of isomers) [Compound 248] — 41-fold lower, 93 nM
